Laboratory results taken from patent publication US8415469B2, “Compounds and methods for kinase modulation, and indications therefor” (Plexxikon Inc., priority 2005, dated 2013).
Read-outs that look alike come from different tables or passages of the source.

Tests used:
Type in all cases: biochemical
Flt1 = target: T1, Flt1 (Homo sapiens, UniProt P17948); assay: AlphaScreen kinase assay, Flt1; conditions: read-out: IC50, activity toward kinase Flt1
T1 construct: P1826.pETN6 BI-PTP FLT1 M799-D1165-X WT; His6 (N); made in house; host or cells: E. coli (PTP1B co-expressed)
T1 sequence (P17948 with tags, fused parts or gaps): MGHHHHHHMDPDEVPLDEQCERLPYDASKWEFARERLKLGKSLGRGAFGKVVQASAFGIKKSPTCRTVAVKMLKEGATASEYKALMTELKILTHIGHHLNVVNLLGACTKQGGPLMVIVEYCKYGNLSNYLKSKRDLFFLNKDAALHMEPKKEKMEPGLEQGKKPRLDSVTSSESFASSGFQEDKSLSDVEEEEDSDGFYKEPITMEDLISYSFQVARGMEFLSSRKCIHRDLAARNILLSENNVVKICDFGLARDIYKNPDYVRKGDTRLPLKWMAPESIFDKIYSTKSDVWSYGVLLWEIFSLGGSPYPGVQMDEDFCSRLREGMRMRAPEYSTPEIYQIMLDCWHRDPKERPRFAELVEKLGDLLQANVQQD

MAP4K4 = MAP4K4 (Homo sapiens, UniProt O95819); assay: AlphaScreen kinase assay, MAP4K4; conditions: read-out: IC50, activity toward kinase MAP4K4
Fms = target: T2, Fms (Homo sapiens, UniProt P07333); assay: AlphaScreen kinase assay, Fms; conditions: read-out: IC50, activity toward kinase Fms
T2 construct: purchased Upstate Biotechnology
Text: AlphaScreen assay was used to screen additional kinases. The assay is similarly dependent on the phosphorylation of a peptide substrate. In this assay, an antibody that recognizes phosphorylated substrate is bound to an acceptor bead. The peptide substrate is attached to biotin, which binds to a donor head that contains streptavidin. Thus phosphorylated substrate is bound by antibody and streptavidin, bringing the donor and acceptor heads into close proximity when kinase is not inhibited. The donor produces singlet oxygen which results in emission from the acceptor when they are in close proximity. Conversely, when kinase is inhibited, the donor and acceptor beads are not associated and the emission from the acceptor is reduced.
AlphaScreen assays were done using compounds dissolved in DMSO to a concentration of 20 mM. The compounds were diluted accordingly to the desired final concentrations in each sample well, using 1:3 serial dilution for a total of 8 concentration points. Plates were prepared such that each kinase reaction is 20 μl in 1× kinase buffer, 5% DMSO and 10 μM ATP. After incubation of the kinase reaction for 1 hour at room temperature, 5 μl of donor beads in stop buffer (50 mM EDTA in 1× kinase buffer) was added, the sample was mixed and incubated for 20 minutes at room temperature before adding 5 μl of acceptor beads in stop buffer. The samples were incubated for 60 minutes at room temperature and the signal per well was read on AlphaQuest reader.

FGFR1 = target: T3, FGFR1 (Homo sapiens, UniProt P11362, C488A/C584S); assay: AlphaScreen kinase assay, FGFR1
T3 construct: P1351.pET N6 BI-PTP FGFR A458-E765-X C488A, C584S; made in house; host or cells: E. coli (PTP1B co-expressed)

Stk6 = target: T4, Stk6 (Homo sapiens, UniProt O14965); assay: Z'-Lyte FRET kinase assay (Invitrogen), Stk6; conditions: read-out: IC50, activity toward kinase Stk6
T4 construct: purchased Invitrogen (Carlsbad, Calif.), screening service
T4 sequence (O14965 1-403): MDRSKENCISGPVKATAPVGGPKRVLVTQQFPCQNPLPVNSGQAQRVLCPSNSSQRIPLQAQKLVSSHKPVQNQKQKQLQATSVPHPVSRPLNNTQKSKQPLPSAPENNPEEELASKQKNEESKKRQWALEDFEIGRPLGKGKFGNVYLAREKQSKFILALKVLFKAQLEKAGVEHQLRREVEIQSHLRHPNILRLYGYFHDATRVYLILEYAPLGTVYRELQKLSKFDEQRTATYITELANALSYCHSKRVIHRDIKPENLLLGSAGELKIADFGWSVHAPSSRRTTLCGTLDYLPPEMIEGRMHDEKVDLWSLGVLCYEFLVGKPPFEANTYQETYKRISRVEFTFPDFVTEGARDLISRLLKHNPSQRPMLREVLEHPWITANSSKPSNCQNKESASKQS

Kdr = target: T5, Kdr (Homo sapiens, UniProt P35968); assay: Z'-Lyte FRET kinase assay (Invitrogen), Kdr; conditions: read-out: IC50, activity toward kinase Kdr
T5 construct: purchased Invitrogen (assay run by Invitrogen)

Pyk2 = target: T6, Pyk2 (Homo sapiens, UniProt Q14289); assay: AlphaScreen kinase assay, Pyk2; conditions: read-out: IC50, activity toward kinase Pyk2
T6 construct: purchased Upstate Biotechnology

B-Raf V600E = target: T7, B-Raf V600E (Homo sapiens, UniProt P15056, V600E); assay: AlphaScreen kinase assay, B-Raf V600E; conditions: read-out: IC50, activity toward kinase B-Raf V600E
T7 construct: P4254. pFastBacBD-CDC37 BRAF D437-K722-X, V600E; His6 with pFastBac HT leader (TEV site) (N); made in house; host or cells: Sf9 (baculovirus; chaperone CDC37 co-expressed)

Kit = target: T8, Kit (Homo sapiens, UniProt P10721); assay: AlphaScreen kinase assay, Kit; conditions: read-out: IC50, activity toward kinase Kit
T8 construct: P1332.N6 BI PTP KIT M552-K948-X COD; His6 (N); made in house; host or cells: E. coli (PTP1B co-expressed)

Fak = target: T9, Fak (Homo sapiens, UniProt Q05397); assay: AlphaScreen kinase assay, Fak; conditions: read-out: IC50, activity toward kinase Fak
T9 construct: P1358.pFastBacHtb FAK S411-Q686-X; His6 with pFastBacHTb leader (TEV site) (N); made in house; host or cells: Sf9 (baculovirus)

c-Raf-1 = target: T10, c-Raf-1 (Homo sapiens, UniProt P04049); assay: AlphaScreen kinase assay, c-Raf-1; conditions: read-out: IC50, activity toward kinase c-Raf-1
T10 construct: purchased Upstate Biotechnology

B-Raf = target: T11, B-Raf (Homo sapiens, UniProt P15056); assay: AlphaScreen kinase assay, B-Raf; conditions: read-out: IC50, activity toward kinase B-Raf
T11 construct: purchased Upstate Biotechnology

Jnk2 = target: T12, Jnk2 (Homo sapiens, UniProt P45984); assay: AlphaScreen kinase assay, Jnk2; conditions: read-out: IC50, activity toward kinase Jnk2
T12 construct: purchased Roche Protein Expression Group (Indianapolis, IN)
Method in brief: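 Stock 20 mM compound in DMSO, diluted 1:3 serially to 8 final concentrations. Kinase phosphorylates biotinylated peptide; donor (streptavidin) and acceptor (anti-phospho antibody) beads then associate. Reduced acceptor emission indicates inhibition.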

Ret = target: T13, Ret (Homo sapiens, UniProt P07949); assay: AlphaScreen kinase assay, Ret; conditions: read-out: IC50, activity toward kinase Ret
T13 construct: P1378.pET-SF BI-PTP RET H661-R1012 HIS; made in house
T13 sequence (P07949 with tags, fused parts or gaps): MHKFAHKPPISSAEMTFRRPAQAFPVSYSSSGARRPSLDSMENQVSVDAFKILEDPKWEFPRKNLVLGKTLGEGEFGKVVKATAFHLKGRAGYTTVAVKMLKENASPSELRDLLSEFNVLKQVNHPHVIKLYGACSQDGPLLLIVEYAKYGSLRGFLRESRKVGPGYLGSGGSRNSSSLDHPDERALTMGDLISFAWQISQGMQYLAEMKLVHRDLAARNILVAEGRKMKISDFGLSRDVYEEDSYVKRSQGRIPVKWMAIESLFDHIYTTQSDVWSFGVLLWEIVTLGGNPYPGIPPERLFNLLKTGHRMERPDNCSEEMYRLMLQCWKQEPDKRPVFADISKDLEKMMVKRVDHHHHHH

Jnk3 = target: T14, Jnk3 (Homo sapiens, UniProt P53779); assay: AlphaScreen kinase assay, Jnk3; conditions: read-out: IC50, activity toward kinase Jnk3
T14 construct: purchased Upstate Biotechnology

Jnk1 = target: T15, Jnk1 (Homo sapiens, UniProt P45983); assay: AlphaScreen kinase assay, Jnk1; conditions: read-out: IC50, activity toward kinase Jnk1
T15 construct: purchased Upstate Biotechnology

Src = target: T16, Src (Homo sapiens, UniProt P12931); assay: AlphaScreen kinase assay, Src; conditions: read-out: IC50, activity toward kinase Src
T16 construct: P1144. pET-N6 BI-PTP SRC V86-L536-X; made in house

[1] = read-out: IC50, activity toward kinase FGFR

Measured: IC50

T9 sequence (Q05397 411-686): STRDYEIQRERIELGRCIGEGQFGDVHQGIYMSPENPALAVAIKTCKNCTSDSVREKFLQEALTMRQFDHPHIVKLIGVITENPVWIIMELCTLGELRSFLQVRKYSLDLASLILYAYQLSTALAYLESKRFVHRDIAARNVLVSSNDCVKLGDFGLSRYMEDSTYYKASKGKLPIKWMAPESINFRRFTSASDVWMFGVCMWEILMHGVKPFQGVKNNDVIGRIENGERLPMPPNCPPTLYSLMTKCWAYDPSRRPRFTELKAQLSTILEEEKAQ
MAP4K4, sequence (O95819 whole entry): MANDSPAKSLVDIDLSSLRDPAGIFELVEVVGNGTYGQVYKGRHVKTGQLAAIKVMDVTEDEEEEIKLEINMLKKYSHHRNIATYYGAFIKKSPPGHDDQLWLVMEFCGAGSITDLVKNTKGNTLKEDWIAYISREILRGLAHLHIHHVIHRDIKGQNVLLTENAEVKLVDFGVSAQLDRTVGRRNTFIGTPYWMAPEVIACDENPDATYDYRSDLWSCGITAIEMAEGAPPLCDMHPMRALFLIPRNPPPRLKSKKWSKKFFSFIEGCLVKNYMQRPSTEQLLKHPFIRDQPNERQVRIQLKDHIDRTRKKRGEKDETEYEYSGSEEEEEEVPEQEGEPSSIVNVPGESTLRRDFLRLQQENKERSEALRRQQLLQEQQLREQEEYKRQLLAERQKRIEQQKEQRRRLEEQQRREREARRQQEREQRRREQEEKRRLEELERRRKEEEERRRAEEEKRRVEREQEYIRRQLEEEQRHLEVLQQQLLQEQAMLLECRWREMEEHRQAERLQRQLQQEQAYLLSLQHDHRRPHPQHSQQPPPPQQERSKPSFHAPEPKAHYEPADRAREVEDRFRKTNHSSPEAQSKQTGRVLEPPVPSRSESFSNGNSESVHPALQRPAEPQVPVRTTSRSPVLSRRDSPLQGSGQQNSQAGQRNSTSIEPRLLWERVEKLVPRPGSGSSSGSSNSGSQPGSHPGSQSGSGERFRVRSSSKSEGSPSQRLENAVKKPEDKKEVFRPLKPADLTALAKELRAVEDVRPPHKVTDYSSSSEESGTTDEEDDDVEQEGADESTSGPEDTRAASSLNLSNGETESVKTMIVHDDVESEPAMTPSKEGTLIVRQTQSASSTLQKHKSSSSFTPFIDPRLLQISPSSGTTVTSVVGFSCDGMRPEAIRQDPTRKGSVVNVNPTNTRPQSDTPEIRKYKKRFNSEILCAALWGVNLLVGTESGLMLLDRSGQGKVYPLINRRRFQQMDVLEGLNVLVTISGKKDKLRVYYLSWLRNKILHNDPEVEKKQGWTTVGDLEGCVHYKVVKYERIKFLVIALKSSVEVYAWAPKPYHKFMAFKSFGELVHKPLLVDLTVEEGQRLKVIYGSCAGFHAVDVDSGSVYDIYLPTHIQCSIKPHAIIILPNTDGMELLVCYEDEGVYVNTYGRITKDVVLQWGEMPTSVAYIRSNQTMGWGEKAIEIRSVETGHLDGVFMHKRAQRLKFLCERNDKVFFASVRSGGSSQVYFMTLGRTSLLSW
T2 sequence (P07333 20-972): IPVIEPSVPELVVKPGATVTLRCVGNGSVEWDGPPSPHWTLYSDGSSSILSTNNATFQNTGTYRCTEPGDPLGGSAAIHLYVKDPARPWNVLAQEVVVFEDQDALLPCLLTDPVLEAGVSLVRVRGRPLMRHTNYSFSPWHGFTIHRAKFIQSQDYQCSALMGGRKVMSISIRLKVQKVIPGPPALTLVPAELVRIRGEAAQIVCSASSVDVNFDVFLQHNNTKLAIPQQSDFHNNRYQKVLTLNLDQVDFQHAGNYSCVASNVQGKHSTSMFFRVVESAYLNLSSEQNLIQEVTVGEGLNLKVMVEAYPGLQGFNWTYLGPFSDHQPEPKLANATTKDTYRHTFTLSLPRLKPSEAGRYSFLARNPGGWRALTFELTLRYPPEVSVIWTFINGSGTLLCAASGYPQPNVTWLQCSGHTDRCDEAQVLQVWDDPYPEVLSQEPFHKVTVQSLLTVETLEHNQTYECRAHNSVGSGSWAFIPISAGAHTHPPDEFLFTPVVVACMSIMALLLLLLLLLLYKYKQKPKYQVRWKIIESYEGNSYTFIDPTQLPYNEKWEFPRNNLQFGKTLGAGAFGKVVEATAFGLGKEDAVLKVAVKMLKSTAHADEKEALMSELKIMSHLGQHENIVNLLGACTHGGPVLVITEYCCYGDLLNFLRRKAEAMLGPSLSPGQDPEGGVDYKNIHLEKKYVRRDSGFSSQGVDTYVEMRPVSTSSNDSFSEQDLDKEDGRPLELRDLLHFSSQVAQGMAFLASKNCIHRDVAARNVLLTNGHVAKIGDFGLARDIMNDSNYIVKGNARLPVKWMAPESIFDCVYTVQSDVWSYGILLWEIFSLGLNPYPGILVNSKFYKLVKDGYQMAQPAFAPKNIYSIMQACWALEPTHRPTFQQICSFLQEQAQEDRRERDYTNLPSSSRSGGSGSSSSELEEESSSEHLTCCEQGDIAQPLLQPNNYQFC
T3 sequence (P11362 458-765 C488A/C584S): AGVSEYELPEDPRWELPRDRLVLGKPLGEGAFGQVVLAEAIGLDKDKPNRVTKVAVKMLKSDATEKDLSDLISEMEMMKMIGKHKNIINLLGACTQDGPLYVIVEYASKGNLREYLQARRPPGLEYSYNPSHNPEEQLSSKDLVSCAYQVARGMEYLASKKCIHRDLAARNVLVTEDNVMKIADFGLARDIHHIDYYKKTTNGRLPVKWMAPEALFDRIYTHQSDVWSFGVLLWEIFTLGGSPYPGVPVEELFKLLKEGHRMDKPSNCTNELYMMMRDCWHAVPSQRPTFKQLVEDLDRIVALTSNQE
T15 sequence (P45983 whole entry): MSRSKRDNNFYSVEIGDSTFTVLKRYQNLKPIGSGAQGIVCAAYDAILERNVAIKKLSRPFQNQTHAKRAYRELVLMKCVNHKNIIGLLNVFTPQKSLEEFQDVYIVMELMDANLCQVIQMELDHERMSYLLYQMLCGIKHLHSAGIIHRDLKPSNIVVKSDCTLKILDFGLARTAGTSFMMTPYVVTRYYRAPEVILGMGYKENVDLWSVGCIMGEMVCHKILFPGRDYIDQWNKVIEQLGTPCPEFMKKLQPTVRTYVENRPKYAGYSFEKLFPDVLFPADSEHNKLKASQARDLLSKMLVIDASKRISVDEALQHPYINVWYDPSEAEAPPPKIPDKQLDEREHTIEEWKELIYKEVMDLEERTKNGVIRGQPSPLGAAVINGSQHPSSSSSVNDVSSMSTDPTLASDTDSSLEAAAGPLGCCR
T16 sequence (P12931 with tags, fused parts or gaps): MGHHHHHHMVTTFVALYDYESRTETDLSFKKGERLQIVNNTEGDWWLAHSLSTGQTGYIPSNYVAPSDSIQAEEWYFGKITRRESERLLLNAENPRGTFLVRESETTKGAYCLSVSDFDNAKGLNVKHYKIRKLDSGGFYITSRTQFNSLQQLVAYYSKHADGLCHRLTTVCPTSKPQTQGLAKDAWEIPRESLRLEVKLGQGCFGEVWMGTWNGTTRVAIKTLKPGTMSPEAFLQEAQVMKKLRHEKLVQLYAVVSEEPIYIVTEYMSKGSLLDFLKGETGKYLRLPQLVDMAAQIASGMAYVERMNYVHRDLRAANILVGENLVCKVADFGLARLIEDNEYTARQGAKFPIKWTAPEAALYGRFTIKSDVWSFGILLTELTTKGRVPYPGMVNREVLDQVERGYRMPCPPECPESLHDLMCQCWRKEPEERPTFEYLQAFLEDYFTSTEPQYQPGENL
T14 sequence (P53779 whole entry): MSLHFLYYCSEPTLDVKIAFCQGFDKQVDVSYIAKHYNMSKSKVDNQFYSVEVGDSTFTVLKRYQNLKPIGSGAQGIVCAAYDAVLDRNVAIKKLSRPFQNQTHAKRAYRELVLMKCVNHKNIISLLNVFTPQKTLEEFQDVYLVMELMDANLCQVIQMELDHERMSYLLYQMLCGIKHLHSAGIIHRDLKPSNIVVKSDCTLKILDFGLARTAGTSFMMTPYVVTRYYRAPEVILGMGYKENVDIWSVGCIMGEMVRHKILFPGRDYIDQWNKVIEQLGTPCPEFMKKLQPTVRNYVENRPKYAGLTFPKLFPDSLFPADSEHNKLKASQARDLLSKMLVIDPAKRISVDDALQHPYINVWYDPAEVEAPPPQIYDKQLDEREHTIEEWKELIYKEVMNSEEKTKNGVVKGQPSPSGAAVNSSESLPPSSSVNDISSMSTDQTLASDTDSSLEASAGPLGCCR
T11 sequence (P15056 whole entry): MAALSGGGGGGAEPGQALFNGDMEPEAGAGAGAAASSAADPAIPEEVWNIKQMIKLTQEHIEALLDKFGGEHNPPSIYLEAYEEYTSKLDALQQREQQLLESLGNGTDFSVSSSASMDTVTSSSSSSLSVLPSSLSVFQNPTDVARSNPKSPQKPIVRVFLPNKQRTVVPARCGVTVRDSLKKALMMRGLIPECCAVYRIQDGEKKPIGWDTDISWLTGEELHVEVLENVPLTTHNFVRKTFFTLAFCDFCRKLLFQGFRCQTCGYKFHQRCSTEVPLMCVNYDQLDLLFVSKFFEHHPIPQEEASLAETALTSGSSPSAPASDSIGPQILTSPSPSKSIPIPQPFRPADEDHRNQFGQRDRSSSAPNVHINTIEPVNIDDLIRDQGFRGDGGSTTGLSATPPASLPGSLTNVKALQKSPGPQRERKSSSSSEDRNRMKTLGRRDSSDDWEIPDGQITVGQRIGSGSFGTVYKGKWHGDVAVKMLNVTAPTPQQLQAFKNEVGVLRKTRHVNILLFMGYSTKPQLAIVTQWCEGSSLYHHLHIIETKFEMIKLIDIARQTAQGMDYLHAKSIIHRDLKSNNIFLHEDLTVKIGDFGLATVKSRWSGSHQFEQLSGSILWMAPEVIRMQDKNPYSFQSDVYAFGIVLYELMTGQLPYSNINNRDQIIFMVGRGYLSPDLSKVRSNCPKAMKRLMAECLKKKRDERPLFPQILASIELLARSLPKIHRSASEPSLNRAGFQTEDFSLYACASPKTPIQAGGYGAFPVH

OCCOc1cccc(Cc2c[nH]c3ncc(-c4ccsc4)cc23)c1 [Compound P-0287]
≤ 10 µM: Flt1 | MAP4K4 | Fms | FGFR1; [1] | Stk6 | Kdr | Pyk2 | B-Raf V600E | Kit

COc1cc(Cc2c[nH]c3ncccc23)cc(OC)c1 [Compound P-0391]
≤ 10 µM: Fak | MAP4K4 | Fms | FGFR1; [1] | Kdr | Kit

CS(=O)(=O)Nc1ccc(Cl)c(C(=O)c2c[nH]c3ncc(-c4cccnc4)cc23)c1F [Compound P-0734, N-[4-Chloro-2-fluoro-3-(5-pyridin-3-yl-1H-pyrrolo[2,3-b]pyridine-3-carbonyl)-phenyl]-methanesulfonamide]
≤ 10 µM: c-Raf-1 | MAP4K4 | FGFR1; [1] | B-Raf | Jnk2 | Ret | Jnk3 | B-Raf V600E | Jnk1

CCCS(=O)(=O)Nc1ccc(Cl)c(C(=O)c2c[nH]c3ncc(-c4cccnc4)cc23)c1F [Compound P-0753, Propane-1-sulfonic acid [4-chloro-2-fluoro-3-(5-pyridin-3-yl-1H-pyrrolo[2,3-b]pyridine-3-carbonyl)-phenyl]-amide]
≤ 10 µM: Src | c-Raf-1 | MAP4K4 | Fms | FGFR1 | Pyk2 | Jnk3 | Kit | Jnk1

Cc1[nH]c2ncccc2c1-c1cccc(F)c1 [Compound P-0986]
≤ 10 µM: Fak | MAP4K4

CCCS(=O)(=O)Nc1ccc(F)c(C(=O)c2c[nH]c3ncc(OCCOC)cc23)c1F [Compound P-1253, Propane-1-sulfonic acid {2,4-difluoro-3-[5-(2-methoxy-ethoxy)-1H-pyrrolo[2,3-b]pyridine-3-carbonyl]-phenyl}-amide]
≤ 10 µM: Src | c-Raf-1 | Fak | MAP4K4 | Fms | FGFR1; [1] | B-Raf | Jnk2 | Jnk3 | B-Raf V600E | Kit | Jnk1

CCCC(=O)Nc1ccc(F)c(C(=O)c2c[nH]c3ncc(-c4cccnc4)cc23)c1F [Compound P-1279]
≤ 10 µM: c-Raf-1 | Flt1 | Fak | MAP4K4 | Fms | FGFR1; [1] | B-Raf | Jnk3 | B-Raf V600E | Kit | Jnk1

CCC(C)NC(=O)Nc1ccc(F)c(C(=O)c2c[nH]c3ncc(-c4cccnc4)cc23)c1F (stereo not drawn) [Compound P-1289, 1-sec-Butyl-3-[2,4-difluoro-3-(5-pyridin-3-yl-1H-pyrrolo[2,3-b]pyridine-3-carbonyl)-phenyl]-urea]
≤ 10 µM: Src | c-Raf-1 | Flt1 | Fak | MAP4K4 | Fms | FGFR1; [1] | B-Raf | Jnk3 | B-Raf V600E | Kit | Jnk1

NC(=O)c1cccc(-c2cnc3[nH]cc(C(=O)c4ccccc4OCc4ccccc4)c3c2)c1 [Compound P-1383]
≤ 10 µM: Src | Flt1 | Fak | MAP4K4 | FGFR1; [1] | B-Raf | B-Raf V600E | Kit

COc1cc(OC)cc(C(=O)c2c[nH]c3ncc(-c4cccnc4)cc23)c1 [Compound P-1411, (3,5-Dimethoxy-phenyl)-(5-pyridin-3-yl-1H-pyrrolo[2,3-b]pyridin-3-yl)-methanone]
≤ 10 µM: Flt1 | Fak | MAP4K4 | Fms | FGFR1; [1] | B-Raf V600E | Kit

O=C(c1c(F)cccc1F)c1c[nH]c2ncccc12 [Compound P-1685]
≤ 10 µM: Fak | MAP4K4 | Fms | FGFR1; [1] | Kit
